Source: article PMC5130025, “A new antiproliferative noscapine analogue: chemical synthesis and biological evaluation” (Oncotarget, 2016)

Tests used:
[1] = tested on: SKBR-3 breast cancer cell line; assay: MTT assay, SKBR-3; assay type: cell-based; conditions: Homo sapiens, SK-BR-3; SKBR-3, 24 h treatment (21 h + 3 h MTT); read-out: IC50, cell viability (MTT)
Description: (§1) The human breast cancer cell lines SKBR-3 and paclitaxel-resistant SKBR-3 were kindly provided by Marc St. George (University of Alberta, Canada). Both cell lines were grown in RPMI 1640 medium (GIBCO) with 10% fetal calf serum and 1 mM L-glutamine 1% penicillin/streptomycin mixture under a humidified atmosphere containing 5% CO2. Addition of 16.65 nM paclitaxel to the paclitaxel-resistant cell line is mandatory to keep the acquired resistance at the same efficiency level.
(§2) The human breast cancer cell lines SKBR-3 and paclitaxel-resistant SKBR-3 (1 × 10^4 cells per well) were seeded into 96-well plates. […] After 21 h incubation, 50 μL of MTT (1 mg/mL) solution was added and the plates were incubated for an additional 3 h. After centrifugation, supernatant was removed from each well and […] of dimethyl sulfoxide (DMSO) was added to dissolve the insoluble formazan crystals. The absorbance was measured at 570 nm and 690 nm subtracted as a background, using microplate reader. The data was plotted using GraphPad Prism 5.0 software. IC50 and statistical analysis (t-test) were calculated using the same software.

tubulin = assay: Microtubule assembly assay (turbidity); assay type: biochemical; conditions: 10 μM compound, tubulin 3 mg/mL, 37°C, turbidity at 340 nm
Description: The turbidity was recorded on 96-half area well plates by microplate reader at 340 nm as an indicator for microtubules formation. […] Tubulin at a concentration of 3mg/mL in tubulin buffer (80 mM PIPES pH 6.9, 2 mM MgCl2, 0.5 mM EGTA, 1 mM GTP, 10.2% glycerol) was kept at 4°C before being added to the wells and shifting to 37°C. The absorbance was measured using the kinetic absorbance mode. DMSO solutions of paclitaxel and colchicine (10 μM) were used as controls.

[2] = tested on: paclitaxel-resistant SKBR-3 breast cancer cell line; assay: MTT assay, paclitaxel-resistant SKBR-3; assay type: cell-based; conditions: Homo sapiens, SK-BR-3, paclitaxel-resistant SKBR-3, 24 h treatment (21 h + 3 h MTT); read-out: IC50, cell viability (MTT)
Description: as §1, §2

αI,βI-tubulin = molecular target: T1, αI,βI-tubulin (Homo sapiens, UniProt P07437+Q71U36); assay: Tryptophan fluorescence quenching binding assay, recombinant αI,βI-tubulin heterodimer; conditions: dissociation constant, calculated
T1 construct: made in house; host or cells: E. coli BL21 (DE3)
T1 sequence (Q71U36 whole entry): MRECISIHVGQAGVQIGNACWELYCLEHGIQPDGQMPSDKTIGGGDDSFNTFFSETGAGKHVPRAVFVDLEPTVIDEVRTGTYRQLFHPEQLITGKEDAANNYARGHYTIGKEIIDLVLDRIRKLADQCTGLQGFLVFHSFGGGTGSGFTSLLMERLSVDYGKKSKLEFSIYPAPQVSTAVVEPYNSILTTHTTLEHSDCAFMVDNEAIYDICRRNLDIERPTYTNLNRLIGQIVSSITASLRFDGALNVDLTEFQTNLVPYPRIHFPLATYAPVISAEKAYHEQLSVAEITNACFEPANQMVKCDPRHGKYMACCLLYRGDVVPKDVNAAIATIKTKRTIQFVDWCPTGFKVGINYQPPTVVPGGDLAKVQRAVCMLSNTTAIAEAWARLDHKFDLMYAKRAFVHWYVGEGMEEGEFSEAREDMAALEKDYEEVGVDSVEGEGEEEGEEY
T1 sequence (P07437 whole entry): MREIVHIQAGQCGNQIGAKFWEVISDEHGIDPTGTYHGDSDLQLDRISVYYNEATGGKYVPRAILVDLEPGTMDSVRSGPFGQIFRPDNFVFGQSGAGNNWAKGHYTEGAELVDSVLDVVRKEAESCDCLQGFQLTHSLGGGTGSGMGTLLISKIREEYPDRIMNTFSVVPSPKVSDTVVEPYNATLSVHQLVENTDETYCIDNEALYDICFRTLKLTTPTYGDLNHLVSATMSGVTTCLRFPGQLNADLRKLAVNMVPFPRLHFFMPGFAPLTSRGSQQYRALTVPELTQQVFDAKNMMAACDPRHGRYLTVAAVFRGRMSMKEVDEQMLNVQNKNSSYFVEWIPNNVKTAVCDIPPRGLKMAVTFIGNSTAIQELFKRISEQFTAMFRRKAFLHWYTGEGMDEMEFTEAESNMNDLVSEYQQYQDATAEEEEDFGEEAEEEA
Description: (§3) The protein sequence of human αI-tubulin is given by UniProtKB accession number Q71U36 (gene name TUBA1A), the protein sequence of human βI-tubulin is given by UniProtKB accession number P07437 (gene name TUBB) and that of human βIII-tubulin is given by UniProtKB accession number Q13509 (gene name TUBB3). The cloning work for αI- and βI-tubulin was performed and reported previously. For the βIII human tubulin protein, the sequence was converted into DNA sequences with codons optimized for production in Escherichia coli, and for purification purposes, a His-tag was added at the N-terminus. The βIII-tubulin gene was inserted into a pET15b vector between the XhoI and NdeI restriction sites. The correct sequence, insertion, and orientation of the tubulin constructs were verified by DNA sequencing. Recombinant proteins were expressed in E. coli BL21 (DE3) host cells in LB medium supplemented with 100 μg/mL ampicillin. The cultures were grown at 37°C until an OD600 = 0.8 was reached, and the cells were induced with 1.0 mM isopropyl b-D-1-thiogalactopyranoside (IPTG) for 18 h at 25°C. After induction, the cells were harvested by centrifugation (6000 × g for 20 min at 4°C in SLC-6000 evolution sorvall rotor). The three variants of the tubulin protein were isolated from the inclusion bodies. […]

αI,βIII-tubulin = molecular target: T2, αI,βIII-tubulin (Homo sapiens, UniProt Q13509+Q71U36); assay: Tryptophan fluorescence quenching binding assay, recombinant αI,βIII-tubulin heterodimer; conditions: dissociation constant, calculated
T2 construct: His-tag (N); made in house; host or cells: E. coli BL21 (DE3)
T2 sequence (Q71U36 whole entry): as the sequence (Q71U36 whole entry) above
T2 sequence (Q13509 whole entry): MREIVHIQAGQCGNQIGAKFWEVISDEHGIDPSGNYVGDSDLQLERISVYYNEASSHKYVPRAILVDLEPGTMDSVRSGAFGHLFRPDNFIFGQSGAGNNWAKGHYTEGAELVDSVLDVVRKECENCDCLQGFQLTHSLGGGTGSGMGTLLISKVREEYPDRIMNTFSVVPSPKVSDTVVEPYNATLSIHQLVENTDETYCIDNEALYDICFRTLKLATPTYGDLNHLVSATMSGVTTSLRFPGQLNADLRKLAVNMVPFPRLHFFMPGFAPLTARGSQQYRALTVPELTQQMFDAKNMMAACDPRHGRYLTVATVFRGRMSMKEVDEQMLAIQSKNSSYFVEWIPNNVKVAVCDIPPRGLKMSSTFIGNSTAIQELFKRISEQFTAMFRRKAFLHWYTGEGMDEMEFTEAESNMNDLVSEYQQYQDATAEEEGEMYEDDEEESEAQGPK
Description: as §3

[3] = molecular target: Porcine brain tubulin (unfractionated); assay: Tryptophan fluorescence quenching binding assay, porcine brain tubulin; conditions: dissociation constant, calculated
βI,βI-tubulin = molecular target: T3, βI,βI-tubulin (Homo sapiens, UniProt P07437); assay: Tryptophan fluorescence quenching binding assay, recombinant βI,βI-tubulin homodimer; conditions: dissociation constant, calculated
T3 construct: made in house; host or cells: E. coli BL21 (DE3)
T3 sequence (P07437 whole entry): as the sequence (P07437 whole entry) above
Description: as §3

| Compound | IC50 [1] [µM] | Effect on MT polymerization (tubulin) | IC50 [2] [µM] | Kd (αI,βI-tubulin) [µM] | Kd (αI,βIII-tubulin) [µM] | Kd [3] [µM] | Kd (βI,βI-tubulin) [µM] |
| --- | --- | --- | --- | --- | --- | --- | --- |
| COc1ccc2c(c1OC)C(=O)O/C2=C\c1ccc2c(c1)OCO2 [Compound 8, (Z)-3-(benzo[d][1,3]dioxol-5-ylmethylene)-6,7-dimethoxyisobenzofuran-1(3H)-one] | ~40 | destabilize MT | ~64 |  |  |  |  |
| COc1ccc2c(c1OC)C(=O)O[C@@H]2[C@H]1c2c(cc3c(c2OC)OCO3)CCN1C [Noscapine] | ~100 | stabilize MT | ~100 | 293 | 289 | 265 | 426 |
